Assay results as given in patent publication US20160244437A1, “SUBSTITUTED PHENYLALANINE DERIVATIVES” (BAYER PHARMA AKTIENGESELLSCHAFT, priority 2013, published 2016).
Counter-ions that a name gives are not always drawn.

Target: T1, human factor XIa (Homo sapiens, UniProt P03951)
T1 construct: purchased Kordia
Assay: Measurement of FXIa inhibition (fluorogenic peptide substrate Boc-Glu(OBzl)-Ala-Arg-AMC)
Type: biochemical
Details: factor XIa from Kordia 0.45 nM, 15 min pre-incubation, 30 min at 22° C., fluorescence
Procedure: The factor XIa inhibition of the substances according to the invention is determined using a biochemical test system which utilizes the reaction of a peptidic factor XIa substrate to determine the enzymatic activity of human factor XIa. Here, factor XIa cleaves from the peptic factor XIa substrate the C-terminal aminomethylcoumarin (AMC), the fluorescence of which is measured. The determinations are carried out in microtitre plates.
Test substances are dissolved in dimethyl sulphoxide and serially diluted in dimethyl sulphoxide (3000 μM to 0.0078 μM; resulting final concentrations in the test: 50 μM to 0.00013 μM). In each case 1 μl of the diluted substance solutions is placed into the wells of white microtitre plates from Greiner (384 wells). Subsequently, the following are added successively: 20 μl of assay buffer (50 mmol/l Tris buffer pH 7.4; 100 mmol/l sodium chloride; 5 mmol/l calcium chloride; 0.1% bovine serum albumin) and 20 μl of factor XIa from Kordia (0.45 nM in assay buffer). After 15 min of incubation, the enzyme reaction is started by addition of 20 μl of the factor XIa substrate Boc-Glu(OBzl)-Ala-Arg-AMC dissolved in assay buffer (10 μM in assay buffer) from Bachem, the mixture is incubated at room temperature (22° C.) for 30 min and fluorescence is then measured (excitation: 360 nm, emission: 460 nm). The measured emissions of the test batches with test substance are compared to those of control batches without test substance (only dimethyl sulphoxide instead of test substance in dimethyl sulphoxide), and IC50 values are calculated from the concentration/activity relationships.

T1 sequence (P03951 388-625 limits assumed): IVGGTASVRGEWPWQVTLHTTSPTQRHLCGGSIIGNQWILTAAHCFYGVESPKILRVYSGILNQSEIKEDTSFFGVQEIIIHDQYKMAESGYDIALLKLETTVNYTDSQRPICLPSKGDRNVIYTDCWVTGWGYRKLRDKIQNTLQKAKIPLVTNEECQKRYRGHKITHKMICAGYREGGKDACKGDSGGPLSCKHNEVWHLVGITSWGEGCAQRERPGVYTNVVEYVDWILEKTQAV
T1 sequence (P03951 19-387 partner limits assumed): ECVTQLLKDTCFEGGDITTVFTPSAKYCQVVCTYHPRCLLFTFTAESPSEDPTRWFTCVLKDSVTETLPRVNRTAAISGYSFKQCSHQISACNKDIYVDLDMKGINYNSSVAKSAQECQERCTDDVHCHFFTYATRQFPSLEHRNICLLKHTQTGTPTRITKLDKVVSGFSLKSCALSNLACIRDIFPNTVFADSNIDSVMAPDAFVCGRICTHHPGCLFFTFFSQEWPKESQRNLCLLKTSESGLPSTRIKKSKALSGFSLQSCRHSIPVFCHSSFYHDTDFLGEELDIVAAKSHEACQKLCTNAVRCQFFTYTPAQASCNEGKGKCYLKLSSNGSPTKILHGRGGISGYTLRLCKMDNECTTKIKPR

Structure (SMILES) | IC50
Cc1ccc(S(=O)(=O)N2CCOCC2)cc1-c1cccc(C[C@H](NC(=O)[C@H]2CC[C@H](CN)CC2)C(=O)Nc2ccc(-c3nnn[nH]3)cc2)c1 [Example 3, trans-4-(Aminomethyl)-N-[(2S)-3-[2′-methyl-5′-(morpholin-4-ylsulphonyl)biphenyl-3-yl]-1-oxo-1-{[4-(1H-tetrazol-5-yl)phenyl]amino}propan-2-yl]cyclohexanecarboxamide hydrochloride] | 0.9 nM
Cc1cc(C(=O)NC2CCNCC2)ccc1-c1cccc(C[C@H](NC(=O)[C@H]2CC[C@H](CN)CC2)C(=O)Nc2ccc(-c3nnn[nH]3)cc2)c1 [Example 15, 3′-[(2S)-2-({[trans-4-(Aminomethyl)cyclohexyl]carbonyl}amino)-3-oxo-3-{[4-(1H-tetrazol-5-yl)phenyl]amino}propyl]-2-methyl-N-(piperidin-4-yl)biphenyl-4-carboxamide hydrochloride] | 7.7 nM
Cc1ccc(S(=O)(=O)N(C)C)cc1-c1cccc(C[C@H](NC(=O)[C@H]2CC[C@H](CN)CC2)C(=O)Nc2ccc(-c3noc(=O)[nH]3)cc2)c1 [Example 23, trans-4-(Aminomethyl)-N-[(2S)-3-[5′-(dimethylsulphamoyl)-2′-methylbiphenyl-3-yl]-1-oxo-1-{[4-(5-oxo-4,5-dihydro-1,2,4-oxadiazol-3-yl)phenyl]amino}propan-2-yl]cyclohexanecarboxamide hydrochloride] | 3.6 nM
Cc1cc(C(=O)NCCOCCOCCO)ccc1-c1cccc(C[C@H](NC(=O)[C@H]2CC[C@H](CN)CC2)C(=O)Nc2ccc(-c3nnn[nH]3)cc2)c1 [Example 25, 3′-[(2S)-2-({[trans-4-(Aminomethyl)cyclohexyl]carbonyl}amino)-3-oxo-3-{[4-(1H-tetrazol-5-yl)phenyl]amino}propyl]-N-{2-[2-(2-hydroxyethoxy)ethoxy]ethyl}-2-methylbiphenyl-4-carboxamide hydrochloride] | 4.4 nM
NC[C@H]1CC[C@H](C(=O)N[C@@H](Cc2cccc(-c3ccc(C(=O)N4CCOCC4)cc3)c2)C(=O)Nc2ccc(-c3nnc(Cl)[nH]3)cc2)CC1 [Example 26, trans-4-(Aminomethyl)-N-{(2S)-1-{[4-(3-chloro-4H-1,2,4-triazol-5-yl)phenyl]amino}-3-[4′-(morpholin-4-ylcarbonyl)biphenyl-3-yl]-1-oxopropan-2-yl}cyclohexanecarboxamide hydrochloride] | 4.5 nM
Cc1ccc(C[C@H](NC(=O)[C@H]2CC[C@H](CN)CC2)C(=O)Nc2ccc(-c3nnn[nH]3)cc2)cc1-c1cccc(C(=O)NCCOCCOCCO)c1 [Example 28, 5′-[(2S)-2-({[trans-4-(Aminomethyl)cyclohexyl]carbonyl}amino)-3-oxo-3-{[4-(1H-tetrazol-5-yl)phenyl]amino}propyl]-N-{2-[2-(2-hydroxyethoxy)ethoxy]ethyl}-2′-methylbiphenyl-3-carboxamide hydrochloride] | 5.2 nM
Cc1ccc(C[C@H](NC(=O)C2CCC(CN)CC2)C(=O)Nc2ccc(-c3nnn[nH]3)cc2)cc1-c1cccc(C(=O)NC2C3CNCC32)c1 (stereo partly drawn) [Example 35, 5′-[(2S)-2-({[trans-4-(Aminomethyl)cyclohexyl]carbonyl}amino)-3-oxo-3-{[4-(1H-tetrazol-5-yl)phenyl]amino}propyl]-N-(3-azabicyclo[3.1.0]hex-6-yl)-2′-methylbiphenyl-3-carboxamide hydrochloride] | 10 nM
NCCNC(=O)c1ccc(-c2cccc(C[C@H](NC(=O)[C@H]3CC[C@H](CN)CC3)C(=O)Nc3ccc4cn[nH]c4c3)c2)cc1 [Example 50, N-(2-Aminoethyl)-3′-[(2S)-2-({[trans-4-(aminomethyl)cyclohexyl]carbonyl}amino)-3-(1H-indazol-6-ylamino)-3-oxopropyl]biphenyl-4-carboxamide hydrochloride] | 55 nM

More lines, now with the values ahead:

IC50 | Structure (SMILES)
17 nM | CCN(CC)CCNC(=O)c1ccc(-c2cccc(C[C@H](NC(=O)[C@H]3CC[C@H](CN)CC3)C(=O)Nc3ccc4cn[nH]c4c3)c2)cc1 [Example 53, 3′-[(2S)-2-({[trans-4-(Aminomethyl)cyclohexyl]carbonyl}amino)-3-(1H-indazol-6-ylamino)-3-oxopropyl]-N-[2-(diethylamino)ethyl]biphenyl-4-carboxamide hydrochloride]
52 nM | Cc1cc(C(=O)N[C@@H]2CCCNC2=O)ccc1-c1cccc(C[C@H](NC(=O)[C@H]2CC[C@H](CN)CC2)C(=O)Nc2ccc3nc(C(F)(F)C(F)(F)F)[nH]c3c2)c1 [Example 63, 3′-[(2S)-2-({[trans-4-(Aminomethyl)cyclohexyl]carbonyl}amino)-3-oxo-3-{[2-(pentafluoroethyl)-1H-benzimidazol-6-yl]amino}propyl]-2-methyl-N-[(3R)-2-oxopiperidin-3-yl]biphenyl-4-carboxamide hydrochloride]
12 nM | CN1CCN(c2cc(-c3cccc(C[C@H](NC(=O)[C@H]4CC[C@H](CN)CC4)C(=O)Nc4ccc(-c5nnn[nH]5)cc4)c3)ccn2)CC1 [Example 65, N-alpha-{[trans-4-(Aminomethyl)cyclohexyl]carbonyl}-3-[2-(4-methylpiperazin-1-yl)pyridin-4-yl]-N-[4-(1H-tetrazol-5-yl)phenyl]-L-phenylalaninamide hydrochloride]
4.9 nM | CN1CCN(c2ncc(-c3cccc(C[C@H](NC(=O)[C@H]4CC[C@H](CN)CC4)C(=O)Nc4ccc(-c5nnn[nH]5)cc4)c3)cn2)CC1 [Example 69, N-alpha-{[trans-4-(Aminomethyl)cyclohexyl]carbonyl}-3-[2-(4-methylpiperazin-1-yl)pyrimidin-5-yl]-N-[4-(1H-tetrazol-5-yl)phenyl]-L-phenylalaninamide hydrochloride]
3.1 nM | CN(C)c1ccc(-c2cccc(C[C@H](NC(=O)[C@H]3CC[C@H](CN)CC3)C(=O)Nc3ccc(-c4nnn[nH]4)cc3)c2)cn1 [Example 71, N-alpha-{[trans-4-(Aminomethyl)cyclohexyl]carbonyl}-3-[6-(dimethylamino)pyridin-3-yl]-N-[4-(1H-tetrazol-5-yl)phenyl]-L-phenylalaninamide hydrochloride]
5.3 nM | NC[C@H]1CC[C@H](C(=O)N[C@@H](Cc2cccc(-c3cncc(N)c3)c2)C(=O)Nc2ccc(-c3nnn[nH]3)cc2)CC1 [Example 72, N-alpha-{[trans-4-(Aminomethyl)cyclohexyl]carbonyl}-3-(5-aminopyridin-3-yl)-N-[4-(1H-tetrazol-5-yl)phenyl]-L-phenylalaninamide hydrochloride]
25 nM | CN(C)c1ncc(-c2cccc(C[C@H](NC(=O)[C@H]3CC[C@H](CN)CC3)C(=O)Nc3ccc4[nH]c(=O)[nH]c4c3)c2)cn1 [Example 73, N-alpha-{[trans-4-(Aminomethyl)cyclohexyl]carbonyl}-3-[2-(dimethylamino)pyrimidin-5-yl]-N-(2-oxo-2,3-dihydro-1H-benzimidazol-5-yl)-L-phenylalaninamide hydrochloride]
2.1 nM | NC[C@H]1CC[C@H](C(=O)N[C@@H](Cc2cccc(-c3cnc(N4CCOCC4)nc3)c2)C(=O)Nc2ccc(-c3nnn[nH]3)cc2)CC1 [Example 74, N-alpha-{[trans-4-(Aminomethyl)cyclohexyl]carbonyl}-3-[2-(morpholin-4-yl)pyrimidin-5-yl]-N-[4-(1H-tetrazol-5-yl)phenyl]-L-phenylalaninamide hydrochloride]
